According to patent US20250065017A1, “Fractionating Extracellular Matrix to Modulate Bioactivity and the Host Response” (University of Pittsburgh - Of the Commonwealth System of …, priority 2014, published 2025):

Experiments:
Sprague Dawley rats = test: Rat skeletal muscle injury model: macrophage phenotype immunolabeling; type: in vivo
Experimental: An established rodent skeletal muscle injury model was used to evaluate the effect of the COX1/2 inhibitor, Aspirin, on the ECM scaffold mediated constructive remodeling response. Briefly, three days prior to the surgical procedure, animals were randomly assigned to either the Aspirin treated (3 mg/mL Aspirin in drinking water) or control (vehicle) group. Bilateral 1.5 cm×1.5 cm partial thickness defects were created in the abdominal musculature. A size-matched pre-cast UBM hydrogel and an overlying 2×2 cm single layer sheet of UBM was then placed in the muscle defect area. The remodeling response was evaluated following 3, 7, 14, and 35 days by quantitative histomorphologic metrics (Wolf M T, Carruthers […], Crapo P M, Huber A, Burnsed O A, Londono R, Johnson […] and others. Polypropylene surgical mesh coated with extracellular matrix mitigates the host foreign body response. J Biomed Mater Res A 2013 and Wolf […], Brennan-Pierce E P, Johnson S A, Carruthers […] hydrogel derived from decellularized dermal extracellular matrix. Biomaterials 2012;33(29):7028-38), including characterization of macrophage phenotype and neo tissue deposition. Thirty-two female Sprague Dawley rats (350-400 g at implantation) were purchased from Harlan Laboratories. Rats were housed on a 12 hour light-dark cycle and fed standard laboratory chow and water ad libitum. Animals were randomly assigned to either the Aspirin treated or control (vehicle) group. Three days prior to surgery, animals in the Aspirin group had their drinking water supplemented with 3 mg/mL Aspirin which was continued throughout the experimental time course. […] Salicylates in whole blood were determined using the Salicylates Detection Kit from Neogen according to the manufacturer's instructions. […] CD206 and CD86: Cellular expression of markers of macrophage polarization (CD206 and CD86) were determined by immunolabeling using previously described methods ([…], Londono […], Carruthers […]. Preparation and characterization of a biologic scaffold from esophageal mucosa. Biomaterials 2013;34(28):6729-37). […]

C2C12 murine myoblasts = test: In vitro myogenesis, THP1/C2C12 transwell co-culture; type: cell-based
Experimental: C2C12 murine myoblasts were obtained from ATCC and grown in complete media (DMEM, 10% FBS, 1% penicillin/streptomycin) at 37° C./5% CO2 according to the ATCC recommendations. Myoblasts were seeded at a density of 5,000 cells/cm^2 in 24 well plates and allowed proliferate to 90% confluence. Cells were then washed in 1×PBS and incubated in differentiation media (DMEM, 2% horse Serum, 1% penicillin/streptomycin) for 24 hours. Cells were washed in 1×PBS and placed in basal media (DMEM, 1% penicillin/streptomycin). A transwell insert (Corning) containing 100,000 differentiated THP1 cells (as described in section 2.9) in 200 μL of complete THP1 cell media was placed in each well. UBM hydrogel (0.5 mg/mL, final concentration) was then added to the THP1 transwell insert only. […] A standardized image capture system and quantitative analysis of in vitro myogenesis was performed as previously described (Goh […], Corbett J T, Pierre […], Pizza F X. Intercellular adhesion molecule-1 expression by skeletal muscle Cells Augments myogenesis. Exp Cell Res 2014). Briefly, custom macro functions (Image […]; Media Cybernetics Inc.) were used to objectively quantify several important myogenesis parameters (e.g., the number of nuclei, myotubes, and nuclei within a myotube). […] The fusion index was calculated by expressing the number of nuclei within myotubes as a percentage of total nuclei.

[1] = vs non-Aspirin treated animals throughout the time course

`CC(=O)Oc1ccccc1C(=O)O` [Aspirin] was tested, and the “M2:M1 ratio (CD68+CD206+ to CD68+CD86+ cells)” value (Sprague Dawley rats; main effect for treatment, UBM implant) was “reduction in the M2:M1 ratio”, the “M1 (CD86+) macrophages” value (Sprague Dawley rats; [1]) was “increase in M1 (CD86+) macrophages” and the “M2 (CD206+) macrophages” value (Sprague Dawley rats; [1]) was “reduction in M2 (CD206+)”. The myogenesis metrics (C2C12 murine myoblasts; Aspirin 200 μM co-administered with UBM 0.5 mg/mL, 48 hours) was “reduced these myogenesis metrics down to control levels” and the “reduction in fusion index” value (C2C12 murine myoblasts; Aspirin with UBM, THP1/C2C12 co culture) was 92%.
